Assay results published in US8173635B2, “Kinase inhibitors” (Vertex Pharmaceuticals Incorporated, priority 2007, dated 2012).
pKi: −log10 of the molar value.

How the values were obtained:
Assay type in all cases: biochemical
PKC theta kinase = PKC theta kinase (Homo sapiens, UniProt Q04759); assay: PKC theta kinase inhibition, coupled-enzyme NADH absorbance assay (Ki); settings: 240 μM ATP, 18 nM PKC theta, 30° C.; read-out: Ki PKC theta
How it was run: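 Enzyme and compound equilibrated 10 min at 30 °C before reaction in HEPES pH 7.5 buffer with MgCl2, NaCl, EDTA and Brij. Activity tracked as NADH loss at 340 nm through a coupled system. Initial-rate data fitted by non-linear regression to give Ki.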

PKC delta kinase = PKC delta kinase (Homo sapiens, UniProt Q05655); assay: PKC delta kinase inhibition, coupled-enzyme NADH absorbance assay (Ki); settings: 150 μM ATP, 46 nM PKC delta, 30° C.; read-out: Ki PKC delta
How it was run: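 Assay buffer was 100 mM HEPES pH 7.5, 10 mM MgCl2, 25 mM NaCl, 0.1 mM EDTA, 0.01% Brij. Enzyme buffer was equilibrated with compound in DMSO for 10 min at 30 °C. Ki values were derived by non-linear regression of initial rate data.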

PKC alpha kinase = PKC alpha kinase (Homo sapiens, UniProt P17252); assay: PKC alpha kinase inhibition, coupled-enzyme NADH absorbance assay (Ki); settings: 130 μM ATP, 4.5 nM PKC alpha, 30° C.; read-out: Ki PKC alpha

Chain of PKC theta kinase (Q04759 whole entry): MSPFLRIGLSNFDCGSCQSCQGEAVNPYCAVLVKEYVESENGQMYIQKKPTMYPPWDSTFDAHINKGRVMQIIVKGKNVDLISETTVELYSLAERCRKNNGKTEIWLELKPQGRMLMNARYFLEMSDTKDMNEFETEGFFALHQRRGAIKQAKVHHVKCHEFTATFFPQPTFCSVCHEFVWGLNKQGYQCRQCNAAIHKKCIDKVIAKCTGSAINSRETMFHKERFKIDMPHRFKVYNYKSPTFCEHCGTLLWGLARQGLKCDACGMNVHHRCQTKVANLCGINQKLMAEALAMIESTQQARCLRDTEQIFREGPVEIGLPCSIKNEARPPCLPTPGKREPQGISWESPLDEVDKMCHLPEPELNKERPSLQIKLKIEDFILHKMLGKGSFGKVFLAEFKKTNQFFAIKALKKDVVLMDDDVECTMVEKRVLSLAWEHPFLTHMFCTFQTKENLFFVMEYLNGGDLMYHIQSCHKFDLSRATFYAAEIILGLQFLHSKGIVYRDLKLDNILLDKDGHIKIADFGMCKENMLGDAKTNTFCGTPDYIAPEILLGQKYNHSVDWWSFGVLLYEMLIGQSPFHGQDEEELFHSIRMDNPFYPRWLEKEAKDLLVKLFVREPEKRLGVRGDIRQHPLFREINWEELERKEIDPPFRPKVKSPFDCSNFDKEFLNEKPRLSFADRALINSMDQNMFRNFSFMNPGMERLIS
Chain of PKC delta kinase (Q05655 whole entry): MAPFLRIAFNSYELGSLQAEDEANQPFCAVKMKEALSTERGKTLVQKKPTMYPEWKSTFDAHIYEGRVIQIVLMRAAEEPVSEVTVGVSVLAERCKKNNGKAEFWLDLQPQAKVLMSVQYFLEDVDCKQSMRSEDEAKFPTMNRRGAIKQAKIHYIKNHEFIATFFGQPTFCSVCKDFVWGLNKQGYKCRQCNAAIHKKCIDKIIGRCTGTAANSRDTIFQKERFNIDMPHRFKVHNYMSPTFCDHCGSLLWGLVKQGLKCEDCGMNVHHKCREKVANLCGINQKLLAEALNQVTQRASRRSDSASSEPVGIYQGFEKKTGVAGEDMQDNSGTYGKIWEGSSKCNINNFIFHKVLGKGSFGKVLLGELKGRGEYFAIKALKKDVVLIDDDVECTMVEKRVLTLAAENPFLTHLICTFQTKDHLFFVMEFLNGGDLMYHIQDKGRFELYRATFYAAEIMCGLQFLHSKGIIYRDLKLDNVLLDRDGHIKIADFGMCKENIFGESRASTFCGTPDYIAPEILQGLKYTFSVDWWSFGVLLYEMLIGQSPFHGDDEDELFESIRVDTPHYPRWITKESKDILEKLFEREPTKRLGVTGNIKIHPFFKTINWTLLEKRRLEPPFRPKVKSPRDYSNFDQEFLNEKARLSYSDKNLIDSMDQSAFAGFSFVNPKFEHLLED

Row | SMILES | pKi (PKC theta kinase) | pKi (PKC delta kinase) | pKi (PKC alpha kinase)
1 | Cc1cc(-c2ccnc3[nH]nc(C(F)(F)F)c23)cc(C2(CN)CCC2)c1 [Compound 215] | > 7.30 | > 6.30 | > 6.30
2 | C1=C(c2cccc(-c3ccnc4[nH]ncc34)c2)CCNC1 [Compound 216] | > 6.30 | > 5.55 | > 5.55
3 | C=CCc1cc(-c2ccnc3[nH]ncc23)cc(C(C)(C)CC#N)c1 [Compound 217] | > 5.55 | < 5.70 | < 5.92
4 | Cc1cnc2[nH]ncc2c1-c1cccc(C(C)(C)C#N)c1 [Compound 219] | < 6.15 | < 5.70 | < 5.92
5 | N#C[C@]1(c2cccc(-c3ccnc4[nH]ncc34)c2)C[C@@H](O)C1 [Compound 220] | > 6.30 | < 5.70 | < 5.92
6 | COc1ccc(C2(C#N)CCC2)cc1-c1ccnc2[nH]ncc12 [Compound 221] | < 6.15 | < 5.70 | < 5.92
7 | COc1ccc(C2(CN)CCC2)cc1-c1ccnc2[nH]ncc12 [Compound 222] | < 6.15 | < 5.70 | < 5.92
8 | NC1(c2cccc(-c3ccnc4[nH]ncc34)c2)CC1 [Compound 223] | > 5.55 | < 5.70 | < 5.92
9 | N#CC(CCO)c1cccc(-c2ccnc3[nH]ncc23)c1 (stereo not drawn) [Compound 224] | > 6.30 | < 5.70 | < 5.92
10 | N#CC(CCN)c1cccc(-c2ccnc3[nH]ncc23)c1 (stereo not drawn) [Compound 225] | > 6.30 | > 5.55 | > 5.55
11 | N#CC1(c2cccc(-c3ccnc4[nH]ncc34)c2)CC(F)(F)C1 [Compound 226] | < 6.15 | < 5.92 | < 5.92
12 | c1cc(-c2ccnc3[nH]ncc23)cc(C2CCNCC2)c1 [Compound 230] | > 5.55 | > 5.55 | > 5.55
13 | C1=C(c2cccc(-c3ccnc4[nH]ncc34)c2)CNC1 [Compound 231] | > 6.30 | > 5.55 | > 5.55
14 | NCC1(c2cccc(-c3ccnc4[nH]ncc34)c2)COC1 [Compound 233] | > 6.30 | > 5.55 | < 5.92
15 | Cc1cnc2[nH]ncc2c1-c1cccc(C(C)(C)CN)c1 [Compound 237, 2-methyl-2-(3-(5-methyl-1H-pyrazolo[3,4-b]pyridin-4-yl)phenyl)propan-1-amine] | > 5.55 | > 5.55 | > 6.30
16 | CC(CC#N)c1cc(Br)cc(-c2ccnc3[nH]ncc23)c1 (stereo not drawn) [Compound 238] | > 6.30 | > 5.55 | > 5.55
17 | CCC(C)(CC#N)c1cc(-c2ccnc3[nH]ncc23)cc(C(F)(F)CCC2CCCC2)c1 (stereo not drawn) [Compound 239] | < 6.15 | < 5.70 | < 5.92
18 | N#CCCc1cc(-c2ccnc3[nH]ncc23)cc(C2(C#N)CC2)c1 [Compound 240] | > 6.30 | < 5.70 | < 5.92
19 | OCC1(c2cccc(-c3ccnc4[nH]ncc34)c2)CCC1 [Compound 242] | > 6.30 | < 5.70 | < 5.92

Row | SMILES | pKi (PKC theta kinase) | pKi (PKC delta kinase) | pKi (PKC alpha kinase)
20 | OCC1(c2cccc(-c3ccnc4[nH]ncc34)c2)CC1 [Compound 243] | > 6.30 | < 5.70 | < 5.92
21 | CC(O)c1cccc(-c2ccnc3[nH]ncc23)c1 (stereo not drawn) [Compound 244] | < 6.15 | < 5.92 | < 5.92
22 | CCC(N)c1cccc(-c2ccnc3[nH]ncc23)c1 (stereo not drawn) [Compound 245] | > 6.30 | < 5.92 | < 5.92
23 | CC(N)c1cccc(-c2ccnc3[nH]ncc23)c1 (stereo not drawn) [Compound 246] | > 6.30 | > 5.55 | < 5.92
24 | CCCCNC(CC)c1cccc(-c2ccnc3[nH]ncc23)c1 (stereo not drawn) [Compound 247] | > 6.30 | < 5.92 | < 5.92
25 | COC(CN)c1cc(C)cc(-c2ccnc3[nH]ncc23)c1 (stereo not drawn) [Compound 248] | > 6.30 | > 5.55 | > 5.55
26 | Cc1cc(-c2ccnc3[nH]ncc23)cc(C(N)C2CC2(F)F)c1 (stereo not drawn) [Compound 250] | > 6.30 | > 5.55 | > 6.30
27 | N[C@H]1CCC[C@@H]1c1cccc(-c2ccnc3[nH]ncc23)c1 [Compound 251] | > 6.30 | < 5.92 | < 5.92
28 | NC(CCC1CCCCC1)c1cccc(-c2ccnc3[nH]ncc23)c1 (stereo not drawn) [Compound 252] | < 6.15 | < 5.92 | < 5.92
29 | NC(CCC1CCCC1)c1cccc(-c2ccnc3[nH]ncc23)c1 (stereo not drawn) [Compound 253] | < 6.15 | < 5.92 | < 5.92
30 | NCC1(c2cc(F)cc(-c3ccnc4[nH]nc(Cl)c34)c2)CCC1 [Compound 255] | > 7.30 | > 7.30 | > 7.30
31 | NCC1(c2cccc(-c3ccnc4[nH]nc(Cl)c34)c2)CCC1 [Compound 260] | > 7.30 | > 7.30 | > 6.30
32 | NCC1(c2cc(F)cc(-c3ccnc4[nH]nc(Br)c34)c2)CCC1 [Compound 261] | > 7.30 | > 7.30 | > 7.30
33 | Cc1n[nH]c2nccc(-c3cc(F)cc(C4(CN)CCC4)c3)c12 [Compound 262] | > 7.30 | > 6.30 | > 6.30
34 | CCc1n[nH]c2nccc(-c3cc(F)cc(C4(CN)CCC4)c3)c12 [Compound 263] | > 7.30 | > 6.30 | > 7.30
35 | NCC1(c2cc(F)cc(-c3ccnc4[nH]nc(C5CC5)c34)c2)CCC1 [Compound 267] | > 7.30 | > 6.30 | > 6.30
36 | NCc1cccc(-c2ccnc3[nH]nc(C4CC4)c23)c1 [Compound 269] | < 6.15 | < 5.92 | < 5.92
37 | CCc1n[nH]c2nccc(-c3cccc(CN)c3)c12 [Compound 270] | < 6.15 | < 5.92 | < 5.92

Now from value to molecule:

Row | pKi (PKC theta kinase) | pKi (PKC delta kinase) | pKi (PKC alpha kinase) | SMILES
38 | > 7.30 | > 7.30 | > 7.30 | CCC(C)(CN)c1cccc(-c2ccnc3[nH]nc(C(F)(F)F)c23)c1 (stereo not drawn) [Compound 213, 2-methyl-2-(3-(3-(trifluoromethyl)-1H-pyrazolo[3,4-b]pyridin-4-yl)phenyl)butan-1-amine]
39 | > 7.30 | > 6.30 | > 6.30 | NCC1(c2cccc(-c3ccnc4[nH]nc(C(F)(F)F)c34)c2)CCOCC1 [Compound 214]
40 | > 6.30 | < 5.70 | > 5.55 | CCCc1cc(-c2ccnc3[nH]ncc23)cc(C(C)(C)CC#N)c1 [Compound 218]
41 | > 7.30 | > 5.55 | > 6.30 | CCC(F)(CN)c1cc(C)cc(-c2ccnc3[nH]ncc23)c1 (stereo not drawn) [Compound 227]
42 | > 7.30 | > 5.55 | > 6.30 | CCC1(c2cc(C)cc(-c3ccnc4[nH]ncc34)c2)CNC(=O)O1 (stereo not drawn) [Compound 228]
43 | > 7.30 | > 6.30 | > 6.30 | N#C[C@]1(c2cccc(-c3ccnc4[nH]ncc34)c2)C[C@H](N)C1 [Compound 229]
44 | > 7.30 | > 6.30 | > 6.30 | CCC(CN)c1cccc(-c2ccnc3[nH]ncc23)c1 (stereo not drawn) [Compound 232]
45 | > 7.30 | > 7.30 | > 6.30 | CC#CCC(C)(CN)c1cc(C)cc(-c2ccnc3[nH]ncc23)c1 (stereo not drawn) [Compound 234]
46 | > 7.30 | > 6.30 | < 5.92 | NCC1(c2cccc(-c3ccnc4[nH]ncc34)c2)CC(F)(F)C1 [Compound 235]
47 | > 7.30 | > 5.55 | > 6.30 | CCC(C)(CO)c1cc(C)cc(-c2ccnc3[nH]ncc23)c1 (stereo not drawn) [Compound 241]
48 | > 7.30 | > 5.55 | > 6.30 | N#C[C@]1(c2cccc(-c3ccnc4[nH]ncc34)c2)C[C@@H](N)C1 [Compound 249]
49 | > 7.30 | > 6.30 | > 6.30 | CCC1(c2cccc(-c3ccnc4[nH]ncc34)c2)CNC(=O)O1 (stereo not drawn) [Compound 254]
50 | > 7.30 | > 6.30 | > 7.30 | CCc1cc(-c2ccnc3[nH]nc(Cl)c23)cc(C(C)(CC)CN)c1 (stereo not drawn) [Compound 256]
51 | > 7.30 | > 6.30 | > 6.30 | NCC1(c2cc(F)cc(-c3ccnc4[nH]nc(Cl)c34)c2)CCOCC1 [Compound 257]
52 | > 7.30 | > 7.30 | > 7.30 | CCC(C)(CN)c1cc(F)cc(-c2ccnc3[nH]nc(Cl)c23)c1 (stereo not drawn) [Compound 258]
53 | > 7.30 | > 6.30 | > 6.30 | N#CC1(c2cccc(-c3ccnc4[nH]nc(Cl)c34)c2)CCC1 [Compound 259]
54 | > 7.30 | > 7.30 | > 7.30 | CCc1n[nH]c2nccc(-c3cccc(C(C)(CC)CN)c3)c12 (stereo not drawn) [Compound 264]
55 | > 7.30 | > 6.30 | > 6.30 | CCc1n[nH]c2nccc(-c3cc(C)cc(C4(CN)CC4)c3)c12 [Compound 265]
56 | > 7.30 | > 7.30 | > 7.30 | CCC(C)(CN)c1cccc(-c2ccnc3[nH]nc(C4CC4)c23)c1 (stereo not drawn) [Compound 266]
57 | > 7.30 | > 6.30 | > 6.30 | Cc1cc(-c2ccnc3[nH]nc(C4CC4)c23)cc(C2(CN)CC2)c1 [Compound 268]
58 | > 7.30 | > 6.30 | > 6.30 | CCc1cc(-c2ccnc3[nH]nc(C(F)(F)F)c23)cc(C(C)(CC)CN)c1 (stereo not drawn) [Compound 271]
